Experiments:
NIH-3T3 cells [1] = assay: TGF-β1 production and effect in PDGF-AA treated NIH-3T3 cells; format: cell-based
Source text: Antagonizing C3aR/C5aR signal transduction induces the synthesis and activation of TGF-β1. We investigated whether TGF-β1 production might underlie the growth suppression connected with C3aR/C5aR blockade. To test this, 1) we assayed supernatants from NIH-3T3 cells treated with PDGF-AA+anti-C3a/anti-C5a mAbs and 2) following removal of anti-C3a/anti-C5a from the mAb treated NIH-3T3 cell cultures (with protein-G beads), we added supernatants without or with anti-TGF-β1 blocking antibody to fresh cultures of PDGF-AA treated NIH-3T3 cells. […] Activation of latent TGF-β1 can be dependent on Thrombospondin 1 (Tsp-1). […] Collectively, these findings indicate that 1) disruption of C3aR/C5aR signaling evokes TGF-β1 production, 2) TGF-β1 enters into an autocrine signaling loop, and 3) C3aR/C5aR signals and TGF-β1 signals oppose each other in regulating PDGF induced growth.

NIH-3T3 cells [2] = assay: C5a ELISA of NIH-3T3 culture supernatants; format: cell-based; settings: PDGF-AA treated cells
Procedure: FIG. 31 illustrates charts showing: (A) C5a (17 ng/mL) added to NIH-3T3 cells. Bars represent 72 hr counts. (B) PDGF-AA was added to NIH-3T3 cells and a 72 hr culture supernatants were assayed for C5a by ELISA.
PDGF contributes to atherogenesis and plays a central role in neointimal proliferation following EC injury. In view of the growth difference of primary cultured Daf1^−/−, WT, C3aR^−/−C5aR^−/−, and C3^−/−C5^−/−SMCs, we examined whether C3aR/C5aR signals are interconnected with PDGF growth induction. For these studies, we utilized NIH-3T3 fibroblasts (which express PDGFR-αα) in conjunction with PDGF-AA. Following determination of optimal PDGF-AA doses, we incubated 1×10^5 cells/well in triplicate with 30 ng/ml of PDGF-AA±10 ng/ml of C3aR and C5aR antagonists (C3aR-A/C5aR-A), 10 ng/ml of anti-C3a/anti-C5a mAbs or respective controls, after which we quantified cell growth by counting cell numbers over time. […] To directly establish whether C5aR signals augment PDGF-AA growth signaling, we 1) quantified the effect of added C5a one growth, and 2) assayed C5a in culture supernatants of PDGF-AA treated cells. […] Because the dependence of PDGF growth induction on C3aR/C5aR signaling could be indirect, i.e., a consequence of its requirement for viability, we performed cell cycle assays.

HUVEC = assay: Complement mRNA transcripts in HUVEC by qPCR; format: cell-based; settings: added C3a or C5a
Procedure: FIG. 33 illustrates charts showing qRT-PCR analysis of C3, factor B and factor D transcripts from HUVEC under hypoxia. A) HUVEC treated with TNF-α, IL-1, and IFN-γ. Blue bars represent samples after treatment. B-C) HUVEC stimulated with C3a (10 ng/ml for 2 hr) or C5a (10 ng/ml for 30 min) Blue bars represent control without C3a/C5a stimulation while red bars represent samples after stimulation. D) HUVEC incubated for 1 hr with FCCP+IAA. Blue bars represent control without hypoxia treatment while yellow bars represent two samples after hypoxia treatment.
We next conversely assessed how transducing C3aR/C5aR signals into ECs affects endogenous EC complement production and whether it is connected with “classical” EC responses. We incubated HUVEC with 1) inflammatory cytokines, 2) the mitochondrial uncoupler protonophore carbonyl cyanide p-(trifluoromethoxy)phenylhydrazone (FCCP)+iodoacetate (IAA) (which mimics hypoxia), or 3) C3a or C5a, after which we assayed complement mRNA transcripts by qPCR. […]
ECs and leukocytes locally synthesize C3/fB/fD/C5 and the elicited C3a/C5a signal through C3aR/C5aR on the same cells to amplify this synthesis. To determine whether ECs locally synthesize AP complement components, we added IL-1/IFN-γ/TNF-α to HUVEC, 1 hr after which we quantified C3 and fB transcripts by qPCR. […]

MS-1 ECs = assay: Growth of MS-1 ECs with VEGF-A or IL-6; format: cell-based, murine; settings: IL-6 alone
Procedure: FIG. 27 illustrates plots showing the growth of ECs in response to VEGF induces C3aR/C5aR signaling via an IL-6 and Stat3 dependent mechanism. VEGF-A was added to serum starved MS-1 cells in the absence or presence of anti-IL-6 neutralizing mAb (2 μg/ml) and growth was quantified at 24, […] and 72 hr.
FIG. 28 illustrates plots showing the growth of serum starved MS-1 cells in the absence or presence of C3aR-A/C5aR-A (10 ng/ml each) and IL-6 (10 ng/ml) at 24, 48 and 72 hr.
For studies with bEnd.3 and MS-1 cells, 5×10^4 cells were plated in 24-well plates and allowed to adhere for 24 hr. Following culturing in 0.5% FBS with DMEM for another 24 hours, the cells were treated as described in the FIG. legends. Growth was quantified manually at 24, 48 and 72 hr with trypan blue. At least 95% of cells were viable in all experiments. VEGF-A was used at a concentration of 30 ng/ml, C3a and C5a at 1 ug/ml, and […] at I ug/ml.
Numerous past studies have linked VEGF with both IL-6 and p-Stat3 our prior studies by ourselves has shown that C5a induces IL-6 and that IL-6 signaling is interconnected with C3aR/C5aR signaling. To determine if the linkage between VEGF and C3aR/C5aR signaling in ECs involves IL-6, we incubated MS-1 ECs with 1) VEGF-A alone, IL-6 alone, or VEGF-A plus anti-IL-6 mAb, or with 2) IL-6 alone or IL-6 plus C3aR-A/C5aR-A, and assayed cell growth. […]

Stat3 = Stat3 phosphorylation in serum starved MS-1 cells; format: cell-based, murine; settings: growth factor alone
Procedure: FIG. 29 illustrates a chart showing phosphor-Stat3 of serum starved MS-1 cells incubated for 10 min at 37° C. with VEGF-A or IL-6 in the absence or presence of anti-IL-6 mAb or C3aR-A/C5aR-A.
Numerous past studies have linked VEGF with both IL-6 and p-Stat3 our prior studies by ourselves has shown that C5a induces IL-6 and that IL-6 signaling is interconnected with C3aR/C5aR signaling. To determine if the linkage between VEGF and C3aR/C5aR signaling in ECs involves IL-6, we incubated MS-1 ECs with 1) VEGF-A alone, IL-6 alone, or VEGF-A plus anti-IL-6 mAb, or with 2) IL-6 alone or IL-6 plus C3aR-A/C5aR-A, and assayed cell growth. […] The growth induction of ECs of IL-6, like that of VEGF-A, was abolished by C3aR-A/C5aR-A (FIG. 28). Both VEGF-A and IL-6 induced Stat3 phosphorylation and the Stat3 phosphorylation in both cases was abolished by C3aR/C5aR antagonism (FIG. 29). […] These finding thus indicate that VEGF interconnects with C3aR/C5aR signaling via the induction of IL-6 and its activation of Stat3.

T cell = T cell activation in response to anti-CD3/28 stimulation; format: cell-based
Source text: (§1) Since some MMPs (MMP-9) is/are constitutively expressed and prothrombin synthesis and secretion might be induced by VEGF-A, prothrombin can cleaved to thrombin by an MMP, e.g., MMP-9 and thrombin, in turn, generates C5a from locally produced C5. The MMP inhibitor alternatively could exert its inhibitory effect on VEGF-A induced EC growth by the pathway that couples C3aR/C5aR signal transduction back to VEGFR2.

ECs = assay: Proliferation of ECs in response to VEGF-A stimulation (thrombin/MMP inhibitors); format: cell-based
Source text: as §1

C3aR−/−C5aR−/− ECs = assay: Growth of C3aR-/-C5aR-/- primary ECs; format: cell-based, mice; settings: without or with added C5a

TGF-β1: active TGF-β1 elicited in supernatants of mAb treated NIH-3T3 cells
suppression of PDGF-AA induced growth (NIH-3T3 cells [1]; elicited TGF-β1 in transferred supernatants): 5 fold

PDGF-AA: platelet derived growth factor, 30 ng/ml
suppression of TGF-β1 mRNA transcription (NIH-3T3 cells [1]; RT-PCR of PDGF-AA treated cells): ~3 fold | C5a generation by NIH-3T3 cells (NIH-3T3 cells [2]): amplified

C3a: complement activation fragment (anaphylatoxin) added to cells
production of AP components by ECs (HUVEC): more AP components | transcription of C3 (HUVEC): increased

IL-6: cytokine added to MS-1 cells (10 ng/ml)
induction of EC growth (MS-1 ECs): comparably to VEGF-A | Stat3 phosphorylation (Stat3): induced

ANGIOMAX: thrombin specific inhibitor
T cell activation (T cell): virtually abolish | proliferation of ECs / VEGF induced EC growth induction (ECs): abolish

Cc1cc(C)c(/C=C2\C(=O)Nc3ccccc32)[nH]1 [SU5416]
growth of C3aR−/−C5aR−/− ECs (C3aR−/−C5aR−/− ECs): abolished

NC(N)=NCCC[C@H](NC(=O)[C@@H]1CCCN1C(=O)[C@H](N)Cc1ccccc1)C(=O)CCl [PPACK]
T cell activation (T cell): virtually abolish | proliferation of ECs / VEGF induced EC growth induction (ECs): abolish

Reference: patent publication US11130801B2, “Method for inhibiting platelet derived growth factor signaling with C3aR or C5aR antibodies” (CASE WESTERN RESERVE UNIVERSITY, priority 2011, dated 2021)
